Tests used:
[1] = test system: Vaccinia virus; assay: Antiviral activity against Vaccinia virus Copenhagen infected in Vero cells measured after 4 days by colorimetric assay; assay type: functional, organism-based, Orthopoxvirus vaccinia
[2] = Selectivity index, ratio of CC50 for African green monkey Vero cells to IC50 for Vaccinia virus Copenhagen infected in Vero cells; assay type: toxicity, cell-based; settings: read-out: Ratio CC50/IC50
[3] = test system: Influenza A virus; assay: Antiviral activity against Influenza A virus (A/California/07/2009(H1N1)) infected in MDCK cells measured after 4 days by colorimetric assay; assay type: functional, organism-based
[4] = (§1) Cytotoxicity against African green monkey Vero cells measured after 4 days by colorimetric assay; assay type: toxicity, cell-based; settings: chlorocebus sabaeus, Vero cells; time 4 day
[5] = (§2) Cytotoxicity against MDCK cells measured after 4 days by colorimetric assay; assay type: toxicity, cell-based, Canis lupus familiaris; settings: dog, MDCK cells; time 4 day
[6] = Selectivity index, ratio of CC50 for MDCK cells to IC50 for Influenza A virus (A/California/07/2009(H1N1)) infected in MDCK cells; assay type: toxicity, cell-based; settings: dog, read-out: Ratio CC50/IC50
[7] = Selectivity index, ratio of CC50 for African green monkey Vero cells to IC50 for ectromelia virus K-1 infected in Vero cells; assay type: toxicity, cell-based; settings: read-out: Ratio CC50/IC50
[8] = test system: Cowpox virus; assay: Antiviral activity against Cowpox virus Grishak infected in Vero cells measured after 4 days by colorimetric assay; assay type: functional, organism-based; settings: 96 h
[9] = Selectivity index, ratio of CC50 for African green monkey Vero cells to IC50 for Cowpox virus Grishak infected in Vero cells; assay type: toxicity, cell-based; settings: read-out: Ratio CC50/IC50
[10] = test system: Vero; assay: as §1; assay type: toxicity, cell-based; settings: chlorocebus sabaeus, vero, 96 h; time 4 day
[11] = test system: Ectromelia virus; assay: Antiviral activity against ectromelia virus K-1 infected in Vero cells measured after 4 days by colorimetric assay; assay type: functional, organism-based; settings: K-1, Vero, 96 h
[12] = test system: MDCK; assay: as §2; assay type: toxicity, cell-based, Canis lupus familiaris; settings: dog, mdck, 96 h; time 4 day
[13] = Orthopoxvirus vaccinia, Copenhagen, Vero, 96 h, read-out: IC50
[14] = Influenza A virus, A/California/07/2009(H1N1), MDCK, 96 h, read-out: IC50

Compound	IC50 [1, 13] [µM]	selectivity ratio [2]	IC50 ([3]; mdck)	CC50 at 96 h [4] [µM]	CC50 at 96 h [5] [µM]	IC50 ([1]; vero)	IC50 [3, 14] [µM]	selectivity ratio [6]	selectivity ratio [7]	IC50 [8] [µM]	selectivity ratio [9]	CC50 [10] [µM]	IC50 [11] [µM]	CC50 [12] [µM]
CCCCNC(=O)c1c(O)nc(-c2cccc([N+](=O)[O-])c2)n1O	17.6	9	Not Active	164	> 314	–	–	–	–	–	–	–	–	–
CCCCNC(=O)c1c(O)nc(-c2ccccc2O)n1O	15	13	Not Active	197	42.9	–	–	–	–	–	–	–	–	–
CCOC(=O)c1c(O)nc(-c2ccccc2)n1O	–	–	–	172	> 406	Not Active	213	1.9	–	–	–	–	–	–
CCCCNC(=O)c1c(O)nc(-c2ccccc2)n1O	73.4	6	Not Active	436	> 366	–	–	–	–	–	–	–	–	–
Nc1ccn(C[C@@H](CO)OCP(=O)(O)O)c(=O)n1 [CIDOFOVIR]	32.5	30	–	–	–	–	–	–	29	46.4	21	989	34	–
CCOC(=O)c1c(O)nc(-c2ccccc2O)n1O	15.5	117	Not Active	1830	> 382	–	–	–	77	31.4	58	–	23.6	–
O=C(NC1CC1)c1c(O)nc(-c2ccccc2O)n1O	–	–	Not Active	–	–	Not Active	–	–	–	–	–	299	–	> 366
O=C(NNC(=O)C1C2C=CC(C3CC23)C1C(=O)O)c1ccc(C(F)(F)F)cc1 (centres undefined)	0.0076	157	–	–	–	–	–	–	157	0.0203	58.8	1190	0.0076	–
CCCCNC(=O)c1c(O)nc(-c2ccc([N+](=O)[O-])cc2)n1O	3.02	66	Not Active	201	27.2	–	–	–	23	12.3	16	–	8.9	–
O=C(NC1CC1)c1c(O)nc(-c2cccc([N+](=O)[O-])c2)n1O	–	–	Not Active	261	> 331	Not Active	–	–	–	–	–	–	–	–
O=C(NC1CC1)c1c(O)nc(-c2ccc([N+](=O)[O-])cc2)n1O	10.7	33	Not Active	357	> 331	–	–	–	24	22.1	16	–	14.7	–
CCCCNC(=O)c1c(O)nc(-c2ccccc2[N+](=O)[O-])n1O	–	–	Not Active	> 314	> 314	Not Active	–	–	–	–	–	–	–	–
O=C(NC1CC1)c1c(O)nc(-c2ccccc2)n1O	–	–	Not Active	> 389	> 389	Not Active	–	–	–	–	–	–	–	–
O=C(NC1CC1)c1c(O)nc(-c2ccc(C(F)(F)F)cc2)n1O	20.6	10	Not Active	202	> 308	–	–	–	–	–	–	–	–	–
CCOC(=O)c1c(O)nc(-c2cccc([N+](=O)[O-])c2)n1O	–	–	–	375	> 344	Not Active	118	2.9	–	–	–	–	–	–
CCOC(=O)c1c(O)nc(-c2ccccc2[N+](=O)[O-])n1O	–	–	Not Active	343	> 344	Not Active	–	–	–	–	–	–	–	–
CCOC(=O)c1c(O)nc(-c2ccc(C(F)(F)F)cc2)n1O	0.35	919	Not Active	322	> 318	–	–	–	46	10	32	–	6.75	–
O=C(NC1CC1)c1c(O)nc(-c2ccccc2[N+](=O)[O-])n1O	–	–	Not Active	> 331	> 331	Not Active	–	–	–	–	–	–	–	–
CCOC(=O)c1c(O)nc(-c2ccc([N+](=O)[O-])cc2)n1O	0.45	102	–	45.7	> 344	–	188	1.8	43	3.23	14	–	1.07	–
CCCCNC(=O)c1c(O)nc(-c2ccc(C(F)(F)F)cc2)n1O	3.4	8	Not Active	26	–	–	–	–	–	–	–	–	–	12.9
